Assay results as given in US6627749B1 (University of Iowa Research Foundation, priority 1999, dated 2003).
Values after ≈ are worked out from the molar mass of the structure shown.

Key:
[1] = In-vitro dissolution of CPT in pH 7.4 phosphate buffer (dialysis bag); format: physicochemical; conditions: 0.02% Tween 80, 37° C., sink conditions
Experimental: The dissolution of CPT from microspheres and physical mixtures and that of free CPT was evaluated in pH 7.4 phosphate buffer solution (composition: 137 mM NaCl, 3 mM KC1, 8 mM Na2HPO4, 1 mM KH2PO4), containing 0.02% Tween 80 at 37° C. under sink conditions. Briefly, an accurately weighed amount of microspheres was suspended in the buffer medium. The suspension was placed in a dialysis bag (MWCO […], Snakeskin™) and then dialyzed against the buffer solution. 1 ml of the release medium was removed at the predetermined time intervals. To maintain the sink condition, an equal volume of the fresh buffer solution was immediately added to the release medium. The concentrations of both lactone and carboxylate forms of CPT in the release media were determined by HPLC assay.

[2] = system: human-derived lymphoid RPMI-8402 leukemia cells; experiment: Cytotoxicity, inhibition of DNA synthesis (3H-thymidine); format: cell-based; conditions: lymphoid RPMI-8402 cells
Experimental: (§1) The cytotoxicity of free CPT and OC—(COOH 20%)/CPT microspheres was evaluated against human-derived lymphoid RPMI-8402 (FIG. 7) and myeloid THP-1 leukemia cell lines (see FIG. 6). […] The cells were diluted to 1×10^6 cells/ml in RPMI 1640 media, supplemented with 1% pen/strep, 1% glutamine, and 10% fetal calf serum, and plated in triplicate at the 2×10^5 cells/well in a 96 well plate. CPT or OC—(COOH 20%)/CPT microspheres were then added, at the equal concentrations, to the wells and the cells were incubated for 20 hours at 37° C. and in 5% CO2. Radiolabeled thymidine (0.04 μci/well) was added to each well at 20 hours and 24 hours. The cells were harvested onto a Reeves Angel 934 AH filter using a Brandel automated cell harvester. Radiolabeled DNA was then measured as disintegration per minute (dpm) by scintillation spectroscopy.

[3] = system: human-derived myeloid THP-1 leukemia cells; experiment: as above; format: cell-based; conditions: myeloid THP-1 cells
Experimental: as §1

[4] = Stability of CPT standard solutions (HPLC); format: physicochemical
Experimental: The lactone and carboxylate forms of CPT were analyzed by HPLC using a fully-automated Shimadzu LC-10 system, equipped with a fluorescence detector, a Supelco's C-18 discovery column (15 cm×4.6 mm, 5 am Supelco Park, Bellefonte, Pa.) and a guard column. The detector was set at an excitation wavelength of 370 nm and an emission wavelength of 435 nm. The mobile phase consisted of a 73.27 (v/v) mixture of triethylamine-acetate buffer (0.1% triethylamine, adjusted with glacial acetic acid to pH 5.5) and acetonitrile. A flow rate of 1 ml/min and an injection volume of 20 μl were used in the analysis. To avoid carryover between successive injections, the injector was washed thoroughly with methanol. The standard solutions of CPT-lactone and CPT-carboxylate were made by dilution of the CPT stock solution in dimethylsulfoxide (DMSO) with 0.02M HC1 and 0.02M NaOH solutions, respectively. The analysis of the CPT-lactone was performed immediately, whereas that of CPT-carboxylate 30 min. after making the solution. Standard solutions of CPT-lactone and CPT-carboxylate were stable for two weeks at 4° C. and for 24 hours at room temperature.

Structure (SMILES)	T-50 (hrs), dissolution of CPT [1] [h]	ED50 [2] [µg/mL]	ED50 [3] [µg/mL]	stability of standard solution ([4]; at 4° C.)	stability of standard solution ([4]; at room temperature) [h]
CC[C@@]1(O)C(=O)OCc2c1cc1n(c2=O)Cc2cc3ccccc3nc2-1 [Free CPT, 20(S)-camptothecin]	118.6	0.025 (≈ 0.0718 µM)	0.75 (≈ 2.15 µM)	–	–
CC[C@@]1(O)C(=O)OCc2c1cc1n(c2=O)Cc2cc3ccccc3nc2-1 [CPT-lactone]	–	–	–	two weeks	24
CCC(O)(C(=O)O)c1cc2n(c(=O)c1CO)Cc1cc3ccccc3nc1-2 (stereo not shown) [CPT-carboxylate]	–	–	–	two weeks	24
